What was measured:
[1] = biological target: T1, β2 (Homo sapiens, UniProt P07550); experiment: Off-target binding screen; settings: 1000 nM, read-out: % Inhibition of Control Specific Binding
T1 construct: Eurofins Pharma Discovery Services (contract screen)

[2] = biological target: T2, CB2 (Homo sapiens, UniProt P34972); experiment: Off-target binding screen; settings: 1000 nM, read-out: % Inhibition of Control Specific Binding
T2 construct: Eurofins Pharma Discovery Services (contract assay)

[3] = biological target: T3, M4 (Homo sapiens, UniProt P08173); experiment: Off-target binding screen; settings: 1000 nM, read-out: % Inhibition of Control Specific Binding
T3 construct: Eurofins Pharma Discovery Services (contract assay)
T3 sequence (P08173 1-479): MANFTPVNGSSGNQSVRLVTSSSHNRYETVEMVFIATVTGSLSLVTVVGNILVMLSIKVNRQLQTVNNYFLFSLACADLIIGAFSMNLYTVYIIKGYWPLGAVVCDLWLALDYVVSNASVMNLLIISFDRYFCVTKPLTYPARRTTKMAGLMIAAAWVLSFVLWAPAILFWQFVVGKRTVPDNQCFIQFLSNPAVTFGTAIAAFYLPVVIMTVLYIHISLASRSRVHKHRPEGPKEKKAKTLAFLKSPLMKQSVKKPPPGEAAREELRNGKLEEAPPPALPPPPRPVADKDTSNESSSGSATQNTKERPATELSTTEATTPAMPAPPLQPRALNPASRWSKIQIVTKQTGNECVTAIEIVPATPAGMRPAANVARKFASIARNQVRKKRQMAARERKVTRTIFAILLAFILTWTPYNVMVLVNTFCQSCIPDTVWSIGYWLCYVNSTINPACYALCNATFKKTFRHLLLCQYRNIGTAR

[4] = biological target: T4, 5-HT7 (Homo sapiens, UniProt P34969); experiment: Off-target binding screen; settings: read-out: % Inhibition of Control Specific Binding; for inhibition at 1 µM: 1000 nM
T4 construct: Eurofins Pharma Discovery Services (contract screen)

[5] = biological target: T5, β3 (Homo sapiens, UniProt P13945); experiment: Off-target binding screen; settings: 1000 nM, read-out: % Inhibition of Control Specific Binding
T5 construct: Eurofins Pharma Discovery Services (contract assay)

[6] = biological target: T6, α2B (Homo sapiens, UniProt P18089); experiment: Off-target binding screen; settings: read-out: % Inhibition of Control Specific Binding; for inhibition at 0.01 µM: 10 nM; for inhibition at 0.1 µM: 100 nM; for inhibition at 1 µM: 1000 nM
T6 construct: Eurofins Pharma Discovery Services (contract screen)
T6 sequence (P18089 1-450): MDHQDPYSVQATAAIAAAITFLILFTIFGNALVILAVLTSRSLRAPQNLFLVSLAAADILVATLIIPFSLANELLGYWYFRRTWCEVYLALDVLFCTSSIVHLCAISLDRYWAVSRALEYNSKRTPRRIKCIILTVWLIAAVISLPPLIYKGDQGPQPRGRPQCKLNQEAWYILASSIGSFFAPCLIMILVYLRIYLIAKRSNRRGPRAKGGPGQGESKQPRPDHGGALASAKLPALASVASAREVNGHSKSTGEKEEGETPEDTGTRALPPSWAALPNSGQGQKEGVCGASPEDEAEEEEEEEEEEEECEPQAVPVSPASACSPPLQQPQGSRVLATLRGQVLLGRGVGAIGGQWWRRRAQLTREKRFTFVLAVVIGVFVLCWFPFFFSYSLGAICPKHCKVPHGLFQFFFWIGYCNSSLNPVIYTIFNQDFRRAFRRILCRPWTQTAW

[7] = test system: BZD (peripheral); experiment: Off-target binding screen; settings: 1000 nM
[8] = biological target: T7, σ2 (Homo sapiens, UniProt Q5BJF2); experiment: Off-target binding screen; settings: read-out: % Inhibition of Control Specific Binding; for inhibition at 0.01 µM: 10 nM; for inhibition at 0.1 µM: 100 nM; for inhibition at 1 µM: 1000 nM
T7 construct: Eurofins Pharma Discovery Services (contract assay)

[9] = biological target: T8, σ1 (Homo sapiens, UniProt Q99720); experiment: Off-target binding screen; settings: read-out: % Inhibition of Control Specific Binding; for inhibition at 0.01 µM: 10 nM; for inhibition at 0.1 µM: 100 nM; for inhibition at 1 µM: 1000 nM
T8 construct: Eurofins Pharma Discovery Services (contract assay)

[10] = biological target: T9, H3 (Homo sapiens, UniProt Q9Y5N1); experiment: Off-target binding screen; settings: 1000 nM, read-out: % Inhibition of Control Specific Binding
T9 construct: Eurofins Pharma Discovery Services (contract assay)

[11] = biological target: T10, 5-HT2A (Homo sapiens, UniProt P28223); experiment: Off-target binding screen; settings: 1000 nM, read-out: % Inhibition of Control Specific Binding
T10 construct: Eurofins Pharma Discovery Services (contract screen)

[12] = biological target: T11, 5-HT1D (Homo sapiens, UniProt P28221); experiment: Off-target binding screen; settings: read-out: % Inhibition of Control Specific Binding; for inhibition at 1 µM: 1000 nM
T11 construct: Eurofins Pharma Discovery Services (contract screen)

[13] = biological target: T12, 5-HT1B (Homo sapiens, UniProt P28222); experiment: Off-target binding screen; settings: read-out: % Inhibition of Control Specific Binding; for inhibition at 1 µM: 1000 nM
T12 construct: Eurofins Pharma Discovery Services (contract screen)

[14] = biological target: T13, SERT (Homo sapiens, UniProt P31645); experiment: Off-target binding screen; settings: 1000 nM, read-out: % Inhibition of Control Specific Binding
T13 construct: Eurofins Pharma Discovery Services

[15] = biological target: T14, 5-HT6 (Homo sapiens, UniProt P50406); experiment: Off-target binding screen; settings: 1000 nM, read-out: % Inhibition of Control Specific Binding
T14 construct: Eurofins Pharma Discovery Services (contract screen)

[16] = biological target: T15, hERG channel (Homo sapiens, UniProt Q12809); experiment: hERG-CHO automated patch-clamp; assay type: cell-based
T15 construct: host or cells: CHO (hERG-CHO)

[17] = biological target: T16, CB1 (Homo sapiens, UniProt P21554); experiment: Off-target binding screen; settings: 1000 nM, read-out: % Inhibition of Control Specific Binding
T16 construct: Eurofins Pharma Discovery Services (contract assay)

[18] = biological target: T17, 5-HT5A (Homo sapiens, UniProt P47898); experiment: Off-target binding screen; settings: read-out: % Inhibition of Control Specific Binding; for inhibition at 1 µM: 1000 nM
T17 construct: Eurofins Pharma Discovery Services (contract screen)

[19] = biological target: T18, D3 (Homo sapiens, UniProt P35462); experiment: Off-target binding screen; settings: read-out: % Inhibition of Control Specific Binding; for inhibition at 0.01 µM: 10 nM; for inhibition at 0.1 µM: 100 nM; for inhibition at 1 µM: 1000 nM
T18 construct: Eurofins Pharma Discovery Services (contract assay)

[20] = biological target: T19, 5-HT3 (Homo sapiens, UniProt P46098); experiment: Off-target binding screen; settings: 1000 nM, read-out: % Inhibition of Control Specific Binding
T19 construct: Eurofins Pharma Discovery Services (contract screen)
T19 sequence (P46098 24-478): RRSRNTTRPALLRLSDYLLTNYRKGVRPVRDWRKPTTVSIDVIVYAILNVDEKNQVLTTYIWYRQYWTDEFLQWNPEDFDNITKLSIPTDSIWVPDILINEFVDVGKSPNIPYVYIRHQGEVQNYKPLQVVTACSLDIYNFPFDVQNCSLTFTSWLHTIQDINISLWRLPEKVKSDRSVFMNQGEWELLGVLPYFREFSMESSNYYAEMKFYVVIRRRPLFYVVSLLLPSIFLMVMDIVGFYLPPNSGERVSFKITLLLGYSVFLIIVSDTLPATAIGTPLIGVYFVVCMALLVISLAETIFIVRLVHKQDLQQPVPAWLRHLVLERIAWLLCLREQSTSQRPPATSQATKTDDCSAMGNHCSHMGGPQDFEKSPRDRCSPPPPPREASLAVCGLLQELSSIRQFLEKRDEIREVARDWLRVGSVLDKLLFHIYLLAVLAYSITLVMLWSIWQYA

T13 sequence (P31645 whole entry, species assumed): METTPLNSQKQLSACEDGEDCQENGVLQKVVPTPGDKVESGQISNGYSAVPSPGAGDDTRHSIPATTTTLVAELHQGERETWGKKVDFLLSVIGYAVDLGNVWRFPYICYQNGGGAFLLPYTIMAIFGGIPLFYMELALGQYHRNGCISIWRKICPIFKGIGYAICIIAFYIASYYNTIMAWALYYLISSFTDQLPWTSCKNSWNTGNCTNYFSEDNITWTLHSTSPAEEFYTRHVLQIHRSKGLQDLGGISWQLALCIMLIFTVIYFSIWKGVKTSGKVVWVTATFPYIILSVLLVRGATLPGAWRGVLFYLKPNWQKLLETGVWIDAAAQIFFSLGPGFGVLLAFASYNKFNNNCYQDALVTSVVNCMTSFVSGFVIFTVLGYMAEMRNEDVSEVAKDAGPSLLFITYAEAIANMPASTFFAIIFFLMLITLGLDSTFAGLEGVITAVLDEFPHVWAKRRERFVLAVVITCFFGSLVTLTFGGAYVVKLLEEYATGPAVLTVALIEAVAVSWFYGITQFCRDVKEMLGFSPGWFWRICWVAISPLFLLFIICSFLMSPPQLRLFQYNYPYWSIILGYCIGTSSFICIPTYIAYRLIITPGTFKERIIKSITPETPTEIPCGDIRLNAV
T1 sequence (P07550 whole entry): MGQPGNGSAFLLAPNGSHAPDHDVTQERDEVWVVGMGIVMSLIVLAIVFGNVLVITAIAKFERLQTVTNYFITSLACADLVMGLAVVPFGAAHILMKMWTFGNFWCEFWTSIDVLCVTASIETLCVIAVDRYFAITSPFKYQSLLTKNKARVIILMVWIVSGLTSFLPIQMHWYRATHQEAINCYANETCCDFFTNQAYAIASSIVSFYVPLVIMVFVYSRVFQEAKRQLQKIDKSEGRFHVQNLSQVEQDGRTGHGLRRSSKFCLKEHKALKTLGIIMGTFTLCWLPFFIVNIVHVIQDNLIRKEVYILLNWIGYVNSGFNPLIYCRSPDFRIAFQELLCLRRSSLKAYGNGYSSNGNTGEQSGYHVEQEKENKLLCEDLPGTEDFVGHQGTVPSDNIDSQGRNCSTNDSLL
T5 sequence (P13945 whole entry): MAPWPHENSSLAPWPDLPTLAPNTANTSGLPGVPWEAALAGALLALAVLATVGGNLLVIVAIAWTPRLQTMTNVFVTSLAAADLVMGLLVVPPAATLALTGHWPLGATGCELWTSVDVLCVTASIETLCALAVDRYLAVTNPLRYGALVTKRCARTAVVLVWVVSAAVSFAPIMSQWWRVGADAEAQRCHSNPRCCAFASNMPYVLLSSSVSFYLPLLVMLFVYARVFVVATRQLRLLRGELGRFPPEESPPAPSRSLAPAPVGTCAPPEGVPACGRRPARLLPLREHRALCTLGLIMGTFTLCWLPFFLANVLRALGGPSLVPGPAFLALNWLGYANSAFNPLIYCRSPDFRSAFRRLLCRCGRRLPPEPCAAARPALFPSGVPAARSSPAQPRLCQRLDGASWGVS
T15 sequence (Q12809 whole entry): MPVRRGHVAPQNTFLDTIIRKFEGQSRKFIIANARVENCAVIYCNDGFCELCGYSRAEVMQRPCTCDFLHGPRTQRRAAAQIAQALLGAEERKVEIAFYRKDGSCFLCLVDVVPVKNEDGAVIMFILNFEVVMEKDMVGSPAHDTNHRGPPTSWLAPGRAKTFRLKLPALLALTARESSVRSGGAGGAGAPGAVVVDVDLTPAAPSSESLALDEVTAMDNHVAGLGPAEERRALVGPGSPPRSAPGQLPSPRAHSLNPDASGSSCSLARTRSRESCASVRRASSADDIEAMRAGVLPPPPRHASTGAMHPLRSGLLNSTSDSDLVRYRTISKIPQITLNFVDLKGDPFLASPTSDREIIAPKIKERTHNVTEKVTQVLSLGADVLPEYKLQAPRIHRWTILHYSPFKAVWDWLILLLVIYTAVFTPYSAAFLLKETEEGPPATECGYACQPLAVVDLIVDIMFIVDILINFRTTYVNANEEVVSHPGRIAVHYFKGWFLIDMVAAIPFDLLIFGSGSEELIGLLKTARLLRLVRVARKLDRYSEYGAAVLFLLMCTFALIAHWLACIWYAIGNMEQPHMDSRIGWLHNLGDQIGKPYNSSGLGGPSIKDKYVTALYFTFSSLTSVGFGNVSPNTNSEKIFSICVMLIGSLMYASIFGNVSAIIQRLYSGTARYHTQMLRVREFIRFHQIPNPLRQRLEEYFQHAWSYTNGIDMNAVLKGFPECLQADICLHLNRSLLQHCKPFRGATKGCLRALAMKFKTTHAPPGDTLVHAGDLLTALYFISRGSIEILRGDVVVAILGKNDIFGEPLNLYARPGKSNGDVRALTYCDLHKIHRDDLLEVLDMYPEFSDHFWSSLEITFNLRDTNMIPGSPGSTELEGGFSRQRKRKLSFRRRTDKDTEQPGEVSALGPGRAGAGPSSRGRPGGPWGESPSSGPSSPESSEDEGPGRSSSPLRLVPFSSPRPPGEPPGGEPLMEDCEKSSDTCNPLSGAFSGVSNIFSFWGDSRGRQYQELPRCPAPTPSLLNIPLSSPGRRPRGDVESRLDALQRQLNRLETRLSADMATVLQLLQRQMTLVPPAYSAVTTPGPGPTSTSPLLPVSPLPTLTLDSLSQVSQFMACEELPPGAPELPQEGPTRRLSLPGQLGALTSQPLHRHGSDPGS
T12 sequence (P28222 whole entry, species assumed): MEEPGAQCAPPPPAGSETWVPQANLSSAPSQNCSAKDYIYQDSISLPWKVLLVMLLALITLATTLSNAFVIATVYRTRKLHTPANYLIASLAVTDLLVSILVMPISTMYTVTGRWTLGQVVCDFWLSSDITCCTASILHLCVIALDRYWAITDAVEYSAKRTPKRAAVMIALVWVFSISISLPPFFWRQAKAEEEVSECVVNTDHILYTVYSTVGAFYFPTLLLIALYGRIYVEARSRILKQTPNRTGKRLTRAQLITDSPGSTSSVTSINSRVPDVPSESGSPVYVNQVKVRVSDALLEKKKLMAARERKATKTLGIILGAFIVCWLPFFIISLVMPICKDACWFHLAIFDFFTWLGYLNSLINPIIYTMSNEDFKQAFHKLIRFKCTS
T2 sequence (P34972 whole entry, species assumed): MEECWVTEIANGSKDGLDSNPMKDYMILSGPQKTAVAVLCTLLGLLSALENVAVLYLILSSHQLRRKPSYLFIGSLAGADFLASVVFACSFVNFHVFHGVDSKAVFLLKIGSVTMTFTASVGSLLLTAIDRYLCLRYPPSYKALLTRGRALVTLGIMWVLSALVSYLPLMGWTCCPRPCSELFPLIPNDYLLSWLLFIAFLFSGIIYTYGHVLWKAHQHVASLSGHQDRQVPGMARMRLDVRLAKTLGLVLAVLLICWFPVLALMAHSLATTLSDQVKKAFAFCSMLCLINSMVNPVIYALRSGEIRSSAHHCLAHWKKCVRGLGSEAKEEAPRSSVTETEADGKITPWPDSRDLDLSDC
T11 sequence (P28221 whole entry, species assumed): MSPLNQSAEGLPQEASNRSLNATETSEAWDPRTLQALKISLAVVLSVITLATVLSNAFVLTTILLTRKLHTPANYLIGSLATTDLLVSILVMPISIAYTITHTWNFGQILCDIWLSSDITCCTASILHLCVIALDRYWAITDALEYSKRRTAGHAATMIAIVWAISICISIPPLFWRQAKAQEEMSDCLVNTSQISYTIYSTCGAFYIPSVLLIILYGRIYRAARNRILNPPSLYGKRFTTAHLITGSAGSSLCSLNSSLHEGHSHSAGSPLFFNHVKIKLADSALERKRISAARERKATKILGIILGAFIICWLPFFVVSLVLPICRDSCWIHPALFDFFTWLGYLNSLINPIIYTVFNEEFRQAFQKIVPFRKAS
T18 sequence (P35462 whole entry): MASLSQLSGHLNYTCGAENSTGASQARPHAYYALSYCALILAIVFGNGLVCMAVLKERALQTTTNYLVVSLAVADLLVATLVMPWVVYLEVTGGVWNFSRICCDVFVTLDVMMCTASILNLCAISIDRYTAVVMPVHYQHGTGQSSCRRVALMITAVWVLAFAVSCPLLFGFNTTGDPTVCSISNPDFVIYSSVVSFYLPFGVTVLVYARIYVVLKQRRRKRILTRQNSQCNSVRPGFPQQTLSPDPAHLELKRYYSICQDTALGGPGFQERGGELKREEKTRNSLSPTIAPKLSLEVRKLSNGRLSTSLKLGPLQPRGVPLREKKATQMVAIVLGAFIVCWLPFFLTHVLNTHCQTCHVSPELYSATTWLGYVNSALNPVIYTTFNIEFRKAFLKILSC
T4 sequence (P34969 whole entry, species assumed): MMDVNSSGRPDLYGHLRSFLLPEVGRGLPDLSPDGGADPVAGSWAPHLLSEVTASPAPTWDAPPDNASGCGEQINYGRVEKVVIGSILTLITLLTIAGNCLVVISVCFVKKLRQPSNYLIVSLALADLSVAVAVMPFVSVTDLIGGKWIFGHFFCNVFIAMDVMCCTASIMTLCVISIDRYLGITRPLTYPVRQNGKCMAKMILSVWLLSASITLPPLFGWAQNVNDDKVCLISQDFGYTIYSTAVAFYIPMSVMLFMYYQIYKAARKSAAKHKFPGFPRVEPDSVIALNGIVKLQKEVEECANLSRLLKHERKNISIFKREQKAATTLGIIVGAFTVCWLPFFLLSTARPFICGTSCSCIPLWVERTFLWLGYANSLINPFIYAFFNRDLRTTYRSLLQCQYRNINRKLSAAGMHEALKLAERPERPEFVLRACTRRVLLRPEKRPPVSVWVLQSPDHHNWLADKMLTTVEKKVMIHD
T7 sequence (Q5BJF2 whole entry): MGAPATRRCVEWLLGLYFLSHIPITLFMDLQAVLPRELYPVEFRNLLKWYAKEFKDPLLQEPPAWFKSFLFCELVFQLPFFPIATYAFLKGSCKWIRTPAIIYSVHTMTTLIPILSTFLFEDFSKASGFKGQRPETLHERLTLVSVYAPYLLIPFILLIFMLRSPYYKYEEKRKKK

SMILES | inhibition at 1 µM [1] [%] | inhibition at 1 µM [2] [%] | inhibition at 1 µM [3] [%] | inhibition at 1 µM [5] [%] | inhibition at 1 µM [6] [%] | % Inhibition of Control Specific Binding [7] [%] | inhibition at 0.01 µM [8] [%] | inhibition at 0.1 µM [8] [%] | inhibition at 1 µM [8] [%] | inhibition at 0.01 µM [9] [%] | inhibition at 0.1 µM [9] [%] | inhibition at 1 µM [9] [%] | inhibition at 1 µM [10] [%] | inhibition at 1 µM [11] [%] | inhibition at 1 µM [13] [%] | inhibition at 1 µM [14] [%] | inhibition at 1 µM [15] [%] | % Inhibition of Tail Current in hERG-CHO ([16]; 1 µM) [%] | inhibition at 1 µM [17] [%] | inhibition at 1 µM [18] [%] | other results
O=C(c1ccc(F)c(Cl)c1)N1CCC(F)(CNCCOc2ccccc2)CC1 [Compound 3] | 2 | 4 | -9 | -2 | 85 | -1.0 | 11 | 33 | 82 | 1 | 15 | 88 | -14 | 3 | -7 | 8 | -9 | 14.2 | -9 | -1 | inhibition at 1 µM [4]: 30%; inhibition at 0.01 µM [6]: -2%; inhibition at 0.1 µM [6]: 45%; inhibition at 1 µM [12]: 48%; % Inhibition of Tail Current in hERG-CHO ([16]; 0,1 µM): 1.0%; % Inhibition of Tail Current in hERG-CHO ([16]; 10 µM): 64.9%; inhibition at 0.01 µM [19]: 12%; inhibition at 0.1 µM [19]: 26%; inhibition at 1 µM [19]: 69%; inhibition at 1 µM [20]: -4%
CNc1ccccc1OCCNCC1(F)CCN(C(=O)c2ccc(F)c(Cl)c2)CC1 [Compound 44, (3-Chloro-4-fluorophenyl)(4-fluoro-4-(((2-(2-(methylamino)phenoxy)ethyl)amino)methyl)piperidin-1-yl)methanone] | -3 | -5 | -11 | -7 | -2 | -5.0 | 2 | 10 | 52 | 11 | 31 | 84 | -13 | -2 | 0 | 18 | 3 | 17.5 | 3 | 2 | inhibition at 1 µM [4]: 11%; inhibition at 1 µM [12]: 38%; inhibition at 1 µM [19]: 42%; inhibition at 1 µM [20]: -11%
O=C(c1ccc(F)c(Cl)c1)N1CCC(F)(CNCCOc2cccc3[nH]ccc23)CC1 [Compound 56, (4-(((2-((1H-Indol-4-yl)oxy)ethyl)amino)methyl)-4-fluoropiperidin-1-yl)(3-chloro-4-fluorophenyl)methanone] | 9 | 1 | -10 | 1 | 75 | -1.0 | -1 | 31 | 63 | 1 | 22 | 86 | -17 | 10 | 63 | 22 | 1 | 6.4 | -15 | 53 | inhibition at 0.001 µM ([4]; 1 nM): 5%; inhibition at 0.01 µM ([4]; 10 nM): 32%; inhibition at 0.1 µM ([4]; 100 nM): 68%; inhibition at 0.01 µM [6]: -8%; inhibition at 0.1 µM [6]: 29%; inhibition at 0.001 µM ([12]; 1 nM): -14%; inhibition at 0.01 µM ([12]; 10 nM): 27%; inhibition at 0.1 µM ([12]; 100 nM): 80%; inhibition at 0.01 µM ([13]; 10 nM): 1%; inhibition at 0.1 µM ([13]; 100 nM): 17%; % Inhibition of Tail Current in hERG-CHO ([16]; 0,1 µM): 0.3%; % Inhibition of Tail Current in hERG-CHO ([16]; 10 µM): 21.1%; inhibition at 0.01 µM ([18]; 10 nM): -18%; inhibition at 0.1 µM ([18]; 100 nM): 12%; inhibition at 0.001 µM ([19]; 1 nM): 41%; inhibition at 0.01 µM [19]: 36%; inhibition at 0.1 µM [19]: 85%; inhibition at 1 µM [19]: 99%; inhibition at 1 µM [20]: -10%

From publication PMC7586344, “Discovery of Novel pERK1/2- or β-Arrestin-Preferring 5-HT1A Receptor-Biased Agonists: Diversified Therapeutic-like versus Side Effect Profile” (Journal of Medicinal Chemistry, 2020)
